From US8557833B2, “Aminopyrimidines useful as kinase inhibitors” (priority 2005, dated 2013)
Read-outs that look alike come from different tables or passages of the source.

How the values were obtained:
[1] = Microsomal stability assay; format: in vitro ADME; conditions: 5 μM compound, 1 mg/mL liver microsome protein, 37° C., species not given
Procedure: Microsomal stability was monitored by generation of depletion-time profiles in microsomes from a range of species (male CD-1 mouse, male Sprague-Dawley rat, male Beagle dog, male Cynomolgus monkey and pooled mixed gender human). Compound spiking solutions were made up by diluting down the compound stock solution in DMSO (typically 10 mM) to give a solution in acetonitrile (0.5 mM). […].
The reaction was initiated by the addition (250 μL) of the pre-incubated RGS to the pre-incubated microsome/VRT/PB mixture (pre-incubation in both instances was for 10 minutes at 37° C.). Samples were incubated within Eppendorf vials (1.5 ml) on a heater shaker (DPC Micromix 5 (settings; form 20, amplitude 4) modified to be heated, to 37° C., by two plate heaters fixed to the deck and controlled by a Packard Manual Heater) attached to a Multiprobe II HT Ex automated liquid handler. The liquid handler was programmed (WinPREP software) to sample the microsomal incubation mixture after 0, 2, 10, 30 and 60 minutes of incubation and transfer an aliquot (100 μL) to a stop block (96-well block) containing 100 μL of chilled methanol. The % organic in the stop mixture was optimized for analysis by addition of appropriate volumes of aqueous/organic (typically 100 μl of 50:50 methanol:water).
Prior to analysis the stop block was placed on a shaker (DPC Micromix 5; 10 min, form 20, amplitude 5) to precipitate out proteins. The block was then centrifuged (Jouan GR412; 2000 rpm, 15 min, 4° C.). A sample aliquot (200 μL) was then transferred to an analysis block and the block was centrifuged again (Jouan GR412; 2000 rpm, 5 min, 4° C.) prior to being sent for analysis. Depletion profiles were determined by monitoring the disappearance of VRT by liquid chromatography-tandem mass spectrometry (LC-MS/MS). Samples were injected (20 μL; Agilent 1100 liquid chromatographic system equipped with autosampler) onto an analytical column. Mobile phase consisted of Water+0.05% (v/v) formic acid (A) and methanol+0.05% (v/v) formic acid (B).
Running a gradient method optimized for the compound of interest carried out the compound elution from analytical column. The total run time was 6 minutes with a flow rate of 0.35 mL/min. The entire column effluent entered the electrospray ionization source (positive mode) of a Micromass Quattro LC tandem mass spectrometer between 0.5 and 5.9 min of the run. The mass spectrometry was optimized for the compound of interest. All incubations were conducted in duplicate and results were expressed as % parent remaining at either 30 minutes or 60 minutes relative to 0 minutes sample.

JAK-2 = JAK-2 (Homo sapiens, UniProt O60674); test: JAK2 inhibition assay; format: biochemical; conditions: 12 μM ATP, 15 μM poly(Glu)4Tyr
[2] = molecular target: N-terminally truncated Abl kinase; test: Abl kinase activity inhibition assay, coupled enzyme; format: biochemical; conditions: read-out: Abl (wild) Ki; 110 μM ATP, 30° C., 21 nM Abl kinase
Procedure: Final concentrations of the components of the coupled enzyme system were 2.5 mM phosphoenolpyruvate, 200 μM NADH, […] pyruvate kinase and 20 μg/ml lactate dehydrogenase.
An assay stock buffer solution was prepared containing all of the reagents listed above with the exception of ATP and the test compound of interest. […] Rates of reaction were obtained using a Molecular Devices Spectramax plate reader (Sunnyvale, Calif.) over 10 min at 30° C. The Ki values were determined from the residual rate data as a function of inhibitor concentration using nonlinear regression (Prism 3.0, Graphpad Software, San Diego, Calif.).

JAK3 = molecular target: T1, JAK3 (Homo sapiens, UniProt P52333); test: biochemical
T1 sequence (P52333 1-1124): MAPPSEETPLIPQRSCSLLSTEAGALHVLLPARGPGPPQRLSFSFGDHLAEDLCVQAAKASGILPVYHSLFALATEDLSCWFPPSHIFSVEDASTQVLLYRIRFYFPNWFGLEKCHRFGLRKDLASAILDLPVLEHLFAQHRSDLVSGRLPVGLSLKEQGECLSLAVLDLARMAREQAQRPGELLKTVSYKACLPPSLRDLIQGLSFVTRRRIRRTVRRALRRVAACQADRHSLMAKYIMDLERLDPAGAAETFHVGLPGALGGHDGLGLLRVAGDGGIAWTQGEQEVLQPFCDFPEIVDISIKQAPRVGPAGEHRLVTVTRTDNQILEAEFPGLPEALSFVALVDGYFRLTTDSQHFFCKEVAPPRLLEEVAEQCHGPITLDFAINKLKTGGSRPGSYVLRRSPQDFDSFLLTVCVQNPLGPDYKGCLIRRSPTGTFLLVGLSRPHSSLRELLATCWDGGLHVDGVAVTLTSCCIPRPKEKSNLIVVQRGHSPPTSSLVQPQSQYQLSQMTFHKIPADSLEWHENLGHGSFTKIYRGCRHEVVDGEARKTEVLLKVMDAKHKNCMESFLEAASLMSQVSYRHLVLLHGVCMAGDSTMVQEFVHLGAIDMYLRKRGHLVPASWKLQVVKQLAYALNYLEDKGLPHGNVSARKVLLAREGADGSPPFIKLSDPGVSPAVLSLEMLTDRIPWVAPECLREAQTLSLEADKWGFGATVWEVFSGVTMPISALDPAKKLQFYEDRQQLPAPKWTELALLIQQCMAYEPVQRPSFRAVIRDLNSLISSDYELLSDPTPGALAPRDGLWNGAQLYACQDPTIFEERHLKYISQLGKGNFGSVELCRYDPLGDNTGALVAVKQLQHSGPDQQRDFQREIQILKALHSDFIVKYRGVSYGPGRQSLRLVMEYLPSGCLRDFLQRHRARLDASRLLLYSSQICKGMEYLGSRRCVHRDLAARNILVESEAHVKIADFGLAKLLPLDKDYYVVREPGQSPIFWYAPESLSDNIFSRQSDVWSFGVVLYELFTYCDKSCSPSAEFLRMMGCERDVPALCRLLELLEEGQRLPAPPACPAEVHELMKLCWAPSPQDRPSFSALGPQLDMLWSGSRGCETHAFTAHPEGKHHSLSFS

[3] = 5 μM ATP, 1 μM poly(Glu)4Tyr, 25° C., 1 nM JAK3, read-out: JAK-3 Ki

Chain of JAK-2 (O60674 whole entry, species assumed, the tested form may be a part): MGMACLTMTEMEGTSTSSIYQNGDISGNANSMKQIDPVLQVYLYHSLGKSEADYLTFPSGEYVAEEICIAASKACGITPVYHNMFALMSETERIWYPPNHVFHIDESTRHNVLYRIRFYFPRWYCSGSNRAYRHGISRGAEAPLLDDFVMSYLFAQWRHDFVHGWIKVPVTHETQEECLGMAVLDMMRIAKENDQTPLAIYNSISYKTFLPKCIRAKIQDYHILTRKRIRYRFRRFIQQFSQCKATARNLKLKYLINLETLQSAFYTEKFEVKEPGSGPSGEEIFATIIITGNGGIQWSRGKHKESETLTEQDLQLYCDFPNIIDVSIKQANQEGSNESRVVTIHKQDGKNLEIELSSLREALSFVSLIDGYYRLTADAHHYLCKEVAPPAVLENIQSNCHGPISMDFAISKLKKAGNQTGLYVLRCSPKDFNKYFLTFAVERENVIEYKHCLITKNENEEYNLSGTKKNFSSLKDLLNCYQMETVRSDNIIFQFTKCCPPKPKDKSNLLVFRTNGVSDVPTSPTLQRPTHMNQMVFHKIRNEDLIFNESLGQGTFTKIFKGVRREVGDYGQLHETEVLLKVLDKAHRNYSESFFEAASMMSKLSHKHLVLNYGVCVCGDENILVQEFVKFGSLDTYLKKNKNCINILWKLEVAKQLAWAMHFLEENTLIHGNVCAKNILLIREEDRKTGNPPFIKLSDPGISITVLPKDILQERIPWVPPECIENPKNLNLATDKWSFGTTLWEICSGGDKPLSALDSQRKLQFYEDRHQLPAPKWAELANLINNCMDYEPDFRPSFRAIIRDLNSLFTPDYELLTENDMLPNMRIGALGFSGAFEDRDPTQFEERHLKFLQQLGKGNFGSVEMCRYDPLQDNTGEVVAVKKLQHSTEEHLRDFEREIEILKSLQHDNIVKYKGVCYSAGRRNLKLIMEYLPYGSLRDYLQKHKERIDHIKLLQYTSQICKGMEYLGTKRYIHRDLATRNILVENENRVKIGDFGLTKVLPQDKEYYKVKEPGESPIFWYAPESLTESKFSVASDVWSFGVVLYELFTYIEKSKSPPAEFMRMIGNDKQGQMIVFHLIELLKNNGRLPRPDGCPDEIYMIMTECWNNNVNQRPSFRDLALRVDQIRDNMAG
Chain of N-terminally truncated Abl kinase (P00519 28-1130): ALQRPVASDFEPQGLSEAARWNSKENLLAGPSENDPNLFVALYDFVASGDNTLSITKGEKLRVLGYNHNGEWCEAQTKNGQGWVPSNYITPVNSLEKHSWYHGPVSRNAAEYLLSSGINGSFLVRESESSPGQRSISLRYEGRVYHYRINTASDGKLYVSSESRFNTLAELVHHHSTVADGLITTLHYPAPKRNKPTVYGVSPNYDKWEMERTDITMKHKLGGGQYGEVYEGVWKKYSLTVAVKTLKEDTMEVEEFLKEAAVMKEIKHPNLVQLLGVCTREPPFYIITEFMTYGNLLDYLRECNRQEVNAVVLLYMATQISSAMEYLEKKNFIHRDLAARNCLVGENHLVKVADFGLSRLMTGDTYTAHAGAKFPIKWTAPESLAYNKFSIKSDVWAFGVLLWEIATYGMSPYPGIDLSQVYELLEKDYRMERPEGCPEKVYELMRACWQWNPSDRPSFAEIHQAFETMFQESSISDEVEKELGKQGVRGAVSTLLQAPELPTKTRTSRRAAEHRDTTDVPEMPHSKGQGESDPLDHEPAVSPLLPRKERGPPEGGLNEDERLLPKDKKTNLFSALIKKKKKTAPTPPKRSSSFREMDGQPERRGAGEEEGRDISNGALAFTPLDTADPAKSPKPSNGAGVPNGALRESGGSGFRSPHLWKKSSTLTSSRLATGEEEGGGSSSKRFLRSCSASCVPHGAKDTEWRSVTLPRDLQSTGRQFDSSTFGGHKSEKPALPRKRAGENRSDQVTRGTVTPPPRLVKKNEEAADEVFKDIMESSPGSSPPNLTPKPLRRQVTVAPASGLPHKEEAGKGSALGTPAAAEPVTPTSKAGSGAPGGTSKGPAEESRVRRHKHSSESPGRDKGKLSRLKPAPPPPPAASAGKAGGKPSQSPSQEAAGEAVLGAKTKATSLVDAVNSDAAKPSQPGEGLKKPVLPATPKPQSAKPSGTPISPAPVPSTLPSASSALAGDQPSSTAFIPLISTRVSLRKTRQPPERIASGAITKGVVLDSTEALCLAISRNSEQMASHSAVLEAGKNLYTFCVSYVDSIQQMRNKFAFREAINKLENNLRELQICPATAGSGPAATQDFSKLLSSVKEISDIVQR

Row | Structure (SMILES) | Microsomal Stability (% remaining after 30 min.) [1] | Ki (JAK-2) | Microsomal Stability (% remaining after 60 min.) [1] | Ki [2] | Ki (JAK3; [3]) | Ki (JAK3)
1 | Cc1cc(Nc2cc(N3CCC3)nc(Sc3ccc(NC(=O)c4ccccc4OC(F)(F)F)cc3)n2)[nH]n1 [Compound I-8] | 100% | 1700 nM | – | – | – | –
2 | Cc1cc(Nc2cc(N3CCC3)nc(Sc3ccc(NC(=O)c4ccccc4C)cc3)n2)[nH]n1 [Compound I-5] | 98% | 190 nM | 65% | 68 nM | – | –
3 | Cc1cc(Nc2cc(N3CCC3)nc(Sc3ccc(NC(=O)c4ccccc4F)cc3)n2)[nH]n1 [Compound I-3] | 51% | 61 nM | 66% | – | – | –
4 | Cc1cc(Nc2cc(N3CCC3)nc(Sc3ccc(NC(=O)c4cccc(Cl)c4)cc3)n2)n[nH]1 [Compound I-12] | 94% | 46 nM | – | – | – | –
5 | Cc1cc(Nc2cc(N3CCC3)nc(Sc3ccc(NC(=O)c4c(Cl)cccc4Cl)cc3)n2)n[nH]1 [Compound I-11] | – | 330 nM | 69% | 21 nM | – | –
6 | Cc1cc(Nc2cc(N3CCC3)nc(Sc3ccc(NC(=O)c4ccccc4Cl)cc3)n2)[nH]n1 [Compound I-1, N-{4-[4-Azetidin-1-yl-6-(5-methyl-2H-pyrazol-3-ylamino)-pyrimidin-2-ylsulfanyl]-phenyl}-2-chloro-benzamide] | 96% | 380 nM | 79% | 36 nM | – | 160 nM
7 | Cc1cc(Nc2cc(N3CCC3)nc(Sc3ccc(NC(=O)c4c(F)cccc4F)cc3)n2)[nH]n1 [Compound I-2, N-{4-[4-Azetidin-1-yl-6-(5-methyl-2H-pyrazol-3-ylamino)-pyrimidin-2-ylsulfanyl]-phenyl}-2,6-Difluoro-benzamide] | 107% | 67 nM | 77% | 7 nM | – | –
8 | Cc1cc(Nc2cc(N3CCC3)nc(Sc3ccc(NC(=O)c4cccc(C(F)(F)F)c4F)cc3)n2)n[nH]1 [Compound I-13] | 85% | 130 nM | 74% | – | – | 220 nM
9 | Cc1cccc(C(=O)Nc2ccc(Sc3nc(Nc4cc(C)[nH]n4)cc(N4CCC4)n3)cc2)c1 [Compound I-4] | 76% | 81 nM | – | – | – | –
10 | COc1ccccc1C(=O)Nc1ccc(Sc2nc(Nc3cc(C)[nH]n3)cc(N3CCC3)n2)cc1 [Compound I-6] | 80% | 1100 nM | – | – | – | –

Continued, values first:

Row | Microsomal Stability (% remaining after 30 min.) [1] | Ki (JAK-2) | Microsomal Stability (% remaining after 60 min.) [1] | Ki [2] | Ki (JAK3; [3]) | Ki (JAK3) | Structure (SMILES)
11 | 86% | 600 nM | – | – | – | – | Cc1cc(Nc2cc(N3CCC3)nc(Sc3ccc(NC(=O)c4cc(Cl)ccc4Cl)cc3)n2)n[nH]1 [Compound I-21]
12 | 93% | 410 nM | – | – | 79 nM | – | O=C(Nc1ccc(Sc2nc(Nc3cc(C4CC4)[nH]n3)cc(N3CCC3)n2)cc1)c1ccccc1Cl [Compound I-17]
13 | 103% | 720 nM | 78% | 36 nM | – | – | Cc1cc(Nc2cc(N3CCC3)nc(Sc3ccc(NC(=O)c4ccccc4C(F)(F)F)cc3)n2)[nH]n1 [Compound I-14]
14 | 73% | 46 nM | 84% | 31 nM | 120 nM | – | Cc1cc(Nc2cc(N3CCC3)nc(Sc3ccc(NC(=O)c4cccc(Cl)c4F)cc3)n2)n[nH]1 [Compound I-15]
15 | 1% | 500 nM | 46% | – | – | 62 nM | CCc1cccc(C(=O)Nc2ccc(Sc3nc(Nc4cc(C)[nH]n4)cc(N4CCC4)n3)cc2)c1Cl [Compound I-22]
16 | 53% | 290 nM | – | – | – | 61 nM | Cc1cc(Nc2cc(N3CCC3)nc(Sc3ccc(NC(=O)c4cccc(C)c4Cl)cc3)n2)n[nH]1 [Compound I-20]
17 | 109% | 410 nM | 91% | – | – | – | Cc1cc(Nc2cc(N3CCC3)nc(Sc3ccc(NC(=O)c4ccccc4C(F)F)cc3)n2)[nH]n1 [Compound I-19]
